# Data as given in PubChem BioAssay (NCI).
#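 Values below derive from 48-hour exposures of cells grown in 96-well plates, with endpoints linearly interpolated between the two concentrations bracketing the appropriate inhibition level. GI50: concentration for 50% inhibition of growth. TGI denotes the concentration required for complete inhibition of growth.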
# Tests used:
# Assay in all cases: NCI tumour cell line growth inhibition, 48 h
# CAKI-1 renal = tested on: CAKI-1 renal
# RXF 393 renal = tested on: RXF 393 renal
# 786-0 renal = tested on: 786-0 renal
# SK-MEL-5 melanoma = tested on: SK-MEL-5 melanoma
# SK-MEL-2 melanoma = tested on: SK-MEL-2 melanoma
# OVCAR-8 ovarian = tested on: OVCAR-8 ovarian
# SF-295 CNS = tested on: SF-295 CNS
# NCI-H226 lung = tested on: NCI-H226 lung
# NCI-H522 lung = tested on: NCI-H522 lung
# UACC-62 melanoma = tested on: UACC-62 melanoma
# OVCAR-5 ovarian = tested on: OVCAR-5 ovarian
# HS 578T breast = tested on: HS 578T breast
# U251 CNS = tested on: U251 CNS
# MDA-MB-435 = tested on: MDA-MB-435
# PC-3 prostate = tested on: PC-3 prostate
# DU-145 prostate = tested on: DU-145 prostate
# SW-620 colon = tested on: SW-620 colon
# SNB-19 CNS = tested on: SNB-19 CNS
# M14 melanoma = tested on: M14 melanoma
# TK-10 renal = tested on: TK-10 renal
# A498 renal = tested on: A498 renal
# UO-31 renal = tested on: UO-31 renal
# SNB-75 CNS = tested on: SNB-75 CNS
# HCT-116 colon = tested on: HCT-116 colon
# SF-268 CNS = tested on: SF-268 CNS
# HT29 colon = tested on: HT29 colon
# OVCAR-4 ovarian = tested on: OVCAR-4 ovarian
# LOX IMVI melanoma = tested on: LOX IMVI melanoma
# CCRF-CEM leukemia = tested on: CCRF-CEM leukemia
# HOP-92 NSCLC = tested on: HOP-92 NSCLC
# SK-MEL-28 melanoma = tested on: SK-MEL-28 melanoma
# NCI/ADR-RES ovarian = tested on: NCI/ADR-RES ovarian
# MCF7 breast = tested on: MCF7 breast
# NCI-H460 lung = tested on: NCI-H460 lung
# BT-549 breast = tested on: BT-549 breast
# COLO 205 colon = tested on: COLO 205 colon
# NCI-H23 lung = tested on: NCI-H23 lung
# SK-OV-3 ovarian = tested on: SK-OV-3 ovarian
# SF-539 CNS = tested on: SF-539 CNS
# SR leukemia = tested on: SR leukemia
# HL-60(TB) leukemia = tested on: HL-60(TB) leukemia
# SN12C renal = tested on: SN12C renal
# EKVX NSCLC = tested on: EKVX NSCLC
# KM12 colon = tested on: KM12 colon
# IGROV1 ovarian = tested on: IGROV1 ovarian
# RPMI-8226 leukemia = tested on: RPMI-8226 leukemia
# T-47D breast = tested on: T-47D breast
# A549 NSCLC = tested on: A549 NSCLC
# MDA-MB-231 breast = tested on: MDA-MB-231 breast
# MALME-3M melanoma = tested on: MALME-3M melanoma
# MOLT-4 leukemia = tested on: MOLT-4 leukemia
# ACHN renal = tested on: ACHN renal
# K-562 leukemia = tested on: K-562 leukemia
# HCT-15 colon = tested on: HCT-15 colon
# HOP-62 NSCLC = tested on: HOP-62 NSCLC
# UACC-257 melanoma = tested on: UACC-257 melanoma
# OVCAR-3 ovarian = tested on: OVCAR-3 ovarian
# HCC-2998 colon = tested on: HCC-2998 colon
smiles,measurement,setting,value
CCN(CC)CCOc1ccc(C(=C(C)c2ccc(OC)cc2)c2ccc(OCCN(CC)CC)cc2)cc1,GI50,CAKI-1 renal,978 nM
same,TGI,CAKI-1 renal,2300 nM
same,GI50,RXF 393 renal,738 nM
same,TGI,RXF 393 renal,1500 nM
same,GI50,786-0 renal,761 nM
same,TGI,786-0 renal,1800 nM
same,GI50,SK-MEL-5 melanoma,873 nM
same,TGI,SK-MEL-5 melanoma,1630 nM
same,GI50,SK-MEL-2 melanoma,1030 nM
same,TGI,SK-MEL-2 melanoma,2140 nM
same,GI50,OVCAR-8 ovarian,1680 nM
same,TGI,OVCAR-8 ovarian,6370 nM
same,GI50,SF-295 CNS,883 nM
same,TGI,SF-295 CNS,1750 nM
same,GI50,NCI-H226 lung,2430 nM
same,TGI,NCI-H226 lung,10300 nM
same,GI50,NCI-H522 lung,1010 nM
same,TGI,NCI-H522 lung,2240 nM
same,GI50,UACC-62 melanoma,887 nM
same,TGI,UACC-62 melanoma,1700 nM
same,GI50,OVCAR-5 ovarian,1570 nM
same,TGI,OVCAR-5 ovarian,5680 nM
same,GI50,HS 578T breast,1090 nM
same,TGI,HS 578T breast,3150 nM
same,GI50,U251 CNS,876 nM
same,TGI,U251 CNS,2000 nM
same,GI50,MDA-MB-435,903 nM
same,TGI,MDA-MB-435,1760 nM
same,GI50,PC-3 prostate,1180 nM
same,TGI,PC-3 prostate,4290 nM
same,GI50,DU-145 prostate,2090 nM
same,TGI,DU-145 prostate,8170 nM
same,GI50,SW-620 colon,936 nM
same,TGI,SW-620 colon,2020 nM
same,GI50,SNB-19 CNS,1610 nM
same,TGI,SNB-19 CNS,5390 nM
same,GI50,M14 melanoma,936 nM
same,TGI,M14 melanoma,1890 nM
same,GI50,TK-10 renal,1150 nM
same,TGI,TK-10 renal,3280 nM
same,GI50,A498 renal,997 nM
same,TGI,A498 renal,2470 nM
same,GI50,UO-31 renal,789 nM
same,TGI,UO-31 renal,1500 nM
same,GI50,SNB-75 CNS,7590 nM
same,TGI,SNB-75 CNS,17500 nM
same,GI50,HCT-116 colon,614 nM
same,TGI,HCT-116 colon,1600 nM
same,GI50,SF-268 CNS,1210 nM
same,TGI,SF-268 CNS,3430 nM
same,GI50,HT29 colon,665 nM
same,TGI,HT29 colon,2030 nM
same,GI50,OVCAR-4 ovarian,1060 nM
same,TGI,OVCAR-4 ovarian,2460 nM
same,GI50,LOX IMVI melanoma,530 nM
same,TGI,LOX IMVI melanoma,1220 nM
same,GI50,CCRF-CEM leukemia,1260 nM
same,TGI,CCRF-CEM leukemia,5870 nM
same,GI50,HOP-92 NSCLC,627 nM
same,TGI,HOP-92 NSCLC,1890 nM
same,GI50,SK-MEL-28 melanoma,856 nM
same,TGI,SK-MEL-28 melanoma,1620 nM
same,GI50,NCI/ADR-RES ovarian,1700 nM
same,TGI,NCI/ADR-RES ovarian,6500 nM
same,GI50,MCF7 breast,275 nM
same,TGI,MCF7 breast,1100 nM
same,GI50,NCI-H460 lung,1440 nM
same,TGI,NCI-H460 lung,4470 nM
same,GI50,BT-549 breast,1030 nM
same,TGI,BT-549 breast,2920 nM
same,GI50,COLO 205 colon,1060 nM
same,TGI,COLO 205 colon,2350 nM
same,GI50,NCI-H23 lung,1470 nM
same,TGI,NCI-H23 lung,5520 nM
same,GI50,SK-OV-3 ovarian,1270 nM
same,TGI,SK-OV-3 ovarian,3170 nM
same,GI50,SF-539 CNS,875 nM
same,TGI,SF-539 CNS,1650 nM
same,GI50,SR leukemia,289 nM
same,TGI,SR leukemia,50000 nM
same,GI50,HL-60(TB) leukemia,1270 nM
same,TGI,HL-60(TB) leukemia,2860 nM
same,GI50,SN12C renal,972 nM
same,TGI,SN12C renal,2400 nM
same,GI50,EKVX NSCLC,2010 nM
same,TGI,EKVX NSCLC,8150 nM
same,GI50,KM12 colon,1800 nM
same,TGI,KM12 colon,6950 nM
same,GI50,IGROV1 ovarian,1290 nM
same,TGI,IGROV1 ovarian,3100 nM
same,GI50,RPMI-8226 leukemia,1140 nM
same,TGI,RPMI-8226 leukemia,3240 nM
same,GI50,T-47D breast,747 nM
same,TGI,T-47D breast,2070 nM
same,GI50,A549 NSCLC,1520 nM
same,TGI,A549 NSCLC,6020 nM
same,GI50,MDA-MB-231 breast,973 nM
same,TGI,MDA-MB-231 breast,2080 nM
same,GI50,MALME-3M melanoma,832 nM
same,TGI,MALME-3M melanoma,1640 nM
same,GI50,MOLT-4 leukemia,1340 nM
same,TGI,MOLT-4 leukemia,5250 nM
same,GI50,ACHN renal,1140 nM
same,TGI,ACHN renal,2750 nM
same,GI50,K-562 leukemia,874 nM
same,TGI,K-562 leukemia,3800 nM
same,GI50,HCT-15 colon,731 nM
same,TGI,HCT-15 colon,1870 nM
same,GI50,HOP-62 NSCLC,1440 nM
same,TGI,HOP-62 NSCLC,4760 nM
same,GI50,UACC-257 melanoma,942 nM
same,TGI,UACC-257 melanoma,1880 nM
same,GI50,OVCAR-3 ovarian,1240 nM
same,TGI,OVCAR-3 ovarian,3620 nM
same,GI50,HCC-2998 colon,1050 nM
same,TGI,HCC-2998 colon,2390 nM
